From patent US11414385B2, “Compounds and methods for treating, detecting, and identifying compounds to treat apicomplexan parasitic diseases” (The University of Chicago, priority 2015, dated 2022)
Converted amounts (≈) assume the structure as drawn. “And” between values parts separate entries of the source, which are not always exact repeats. Identical values can stand only once. “Also recorded” adds a separate entry of the source. Like-named read-outs stand apart in the source and are kept apart here.

Experiments:
[1] = Microsomal metabolic stability, mouse; assay type: in vitro ADME
[2] = system: S. cerevisiae wild type parental AD1-9 strain; experiment: Yeast growth inhibition on glycerol medium, wild type; assay type: cell-based, Saccharomyces cerevisiae; conditions: 1 mM, 100, 5 and 1 μM
Description: Three S. cerevisiae strains were used: M221Q and M221F cytochrome b mutants and wild type. They share the same nuclear genetic background deriving from AD1-9 (kindly given by M. Ghislain, UCL, Belgium). AD1-9 harbors multiple deletions in the ABC transporter genes that render the strain more sensitive to drugs than standard yeast strains^S65.
Protocol: Yeast strains were grown over 48 hours at 33° C. in liquid YPG medium [1% yeast extract, 2% (wt/vol) peptone, and 3% (vol/vol) glycerol). Cultures were diluted to an OD600 of 0.05 and grown for 2 hrs. Cultures were then combined with YPG containing 6% melted agar for a total volume of 15-20 mL and poured onto OmniTray single-well rectangular plates that measured 86 mm by 128 mm (ThermoScientific). Filter paper disks (7 mm diameter, […]) were placed onto the cooled agar plates. […] A single disk with DMSO on each plate was used as a control. Plates were incubated at 33° C. Images were obtained after 4 days using GelDoc XR Imaging System (BioRad) and Quantity One software. Drug effect was assessed by the presence and size of a zone of inhibition around the disks.

[3] = system: T. gondii bradyzoites (EGS strain); experiment: EGS strain bradyzoite assay (cysts in HFF, dolichos/BAG1 staining); assay type: cell-based, Toxoplasma gondii
Description: (§1) HFF cells were grown in IMDM (1×, [+] glutamine, [+] 25 mM HEPES, [+] Phenol red, 10% FBS, [Gibco, Denmark]) on removable, sterile glass disks in the bottom of a clear, flat-bottomed 24-well plate. Cultures were infected with 3×10^4 parasites (EGS strain) per well, in 0.5 mL media and plate was returned to incubator at 37° C. overnight. The following day, the media was removed and clear IMDM and compounds were added to making various concentrations of the drug, to a total volume of 0.5 mL. Two wells were filled with media only, as a control. Plates were returned to the 37° C. incubator for 72 hours.
Efficacy was determined following fixation. Staining was used to determine the numbers of cysts in cultures without and with treatment with the test compounds. Cells were fixed using 4% paraformaldehyde and stained with Fluorescein-labeled Dolichos Biflorus Agglutinin, DAPI, and anti-BAG1, and anti-SAG1. Disks were removed and mounted onto glass slides and visualized using microscopy (Nikon Tl7). Slides were also scanned using a CRi Pannoramic Scan Whole Slide Scanner and viewed using Panoramic Viewer Software.
as §1, with “[gibco,” for “[Gibco,”, “2” for “Two”, “72 hours, and checked once every 24” for “72”, “hours. If tachyzoites were visible in the control before 72 hours, the cells were fixed and stained.” for “hours.”
Cells were fixed using 4% paraformaldehyde and stained with Fluorescein-labeled Dolichos Biflorus Agglutinin, DAPI, and BAG1. Disks were removed and mounted onto glass slides and visualized using microscopy (Nikon Tl7). Slides were scanned using a CRi Pannoramic Scan Whole Slide Scanner and viewed using Panoramic Viewer Software. Effects of the compounds were quantified by counting cysts in the controls and treated cells. Cysts and persisting organisms were counted in a representative field of view and then multiplied by a factor determined by the total area of the disk in order to estimate the number of cysts and organisms in each condition.
HFF cells were grown in IMDM (1×, [+] glutamine, [+] 25 mM HEPES, [+] Phenol red, 10% FBS, [gibco, Denmark]) on removable, sterile glass disks in the bottom of a clear, flat-bottomed 24-well plate. Cultures were infected with 3×10^4 parasites (EGS strain) per well, in 0.5 mL media and plate was returned to incubator at 37° C. overnight. The following day, the media was removed and clear IMDM and compounds were added to making various concentrations of the drug, to a total volume of 0.5 mL. 2 wells were filled with media only, as a control. Plates were returned to the 37° C. incubator for 72 hours, and checked once every 24 hours. If tachyzoites were visible in the control before 72 hours, the cells were fixed and stained. Cells were fixed using 4% paraformaldehyde and stained with Fluorescein-labeled Dolichos Biflorus Agglutinin, DAPI, and BAG1. Disks were removed and mounted onto glass slides and visualized using microscopy (Nikon Tl7). Slides were scanned using a CRi Pannoramic Scan Whole Slide Scanner and viewed using Panoramic Viewer Software. Effects of the compounds were quantified by counting cysts in the controls and treated cells. Cysts and persisting organisms were counted in a representative field of view and then multiplied by a factor determined by the total area of the disk in order to estimate the number of cysts and organisms in each condition. Data was collected using Gen5 software. IC50 was calculated by graphical analysis in Excel.

[4] = Aqueous kinetic solubility pH 7.4; assay type: physicochemical; conditions: for solubility kinetic: PBS pH 7.4
[5] = FaSSIF solubility pH 6.5; assay type: physicochemical; conditions: pH 6.5
[6] = Cytotoxicity assay with WST-1 in HFF; assay type: cell-based; conditions: human, human foreskin fibroblasts (HFF); read-out: HFF Toxicity CC50
Description: (§2) Toxicity assays were conducted using WST-1 cell proliferation reagent (Roche). HFF were grown on a flat, clear-bottomed, black 96-well plate. Confluent HFF were treated with inhibitory compounds at concentrations equal to those being tested in challenge assays. Compounds were diluted in IMDM-C, and 20 μl were added to each designated well, with triplicates for each condition. A gradient of 2 fold-decreasing concentrations of DMSO in clear IMDM-C was used as a control. The plate was incubated for 72 hours at 37° C. 10 μl of WST-1 reagent (Roche) were added to each well and the cells were incubated for 30 to 60 minutes. Absorbance was read using a fluorometer at 420 nm. A higher degree of color change (and absorbance) indicated mitochondrial activity and cell viability.
as §2, with “(Roche) as described in Fomovska, et. al. (18,19).” for “(Roche).”, “of 10 μM and 50 μM.” for “equal to those being tested in challenge assays.”, “DMSO from 10% to 0%” for “DMSO”, “fluorimeter” for “fluorometer”

[7] = system: P. falciparum strains D6, TM91-C235, W2, C2B; experiment: Malaria SYBR Green I-Based Fluorescence (MSF) Assay; assay type: cell-based, Plasmodium falciparum; conditions: Plasmodium falciparum, read-out: P. falciparum IC50
Description: Testing of P. falciparum: D6 is a drug sensitive strain from Sierra Leone, C235 is a multi-drug resistant strain from Thailand, W2 is a chloroquine resistant strain from Thailand, and C2B has resistance to a variety of drugs including atovaquone.
D6 is a drug sensitive strain from Sierra Leone, C235 is a multi-drug resistant strain from Thailand, W2 is a chloroquine resistant strain from Thailand, and C2B has resistance to a variety of drugs including atovaquone. These assays were performed as described.
(§3) Compound activity against P. falciparum, a causative agent of malaria, was tested using the Malaria SYBR Green I—Based Fluorescence (MSF) Assay. This; microtiter plate drug sensitivity assay uses the presence of malarial DNA as a measure of parasitic proliferation in the presence of antimalarial drugs or experimental compounds based on modifications of previously described methods by Plouffe et al (20) and Johnson et al. As the intercalation of SYBR Green I dye and its resulting fluorescence is relative to parasite growth, a test compound that inhibits the growth of the parasite will result in a lower fluorescence.
Selected compounds were examined for activity against four strains of P. falciparum: D6 (CDC/Sierra Leone), a drug-sensitive strain readily killed by chloroquine, TM91-C235, a multi-drug resistant strain resistant to chloroquine, W2, a chloroquine resistant strain from Thailand, and C2B has resistance to a variety of drugs including atovaquone.
D6 is a drug sensitive strain from Sierra Leone, C235 is a multi-drug resistant strain from Thailand, W2 is a chloroquine resistant strain from Thailand, and C2B has resistance to a variety of drugs including atovaquone. These assays were performed using standard protocols.
as §3, with “known in the art.” for “by Plouffe et al (20) and Johnson et al.”, “fluorescence. Selected compounds were examined for activity against four strains of P. falciparum: D6 (CDC/Sierra Leone), a drugsensitive strain readily killed by chloroquine, TM91-C235, a multi-drug resistant strain resistant to chloroquine, W2, a chloroquine resistant strain from Thailand, and C2B has resistance to a variety of drugs including atovaquone.” for “fluorescence.”

[8] = Microsomal metabolic stability, human; assay type: in vitro ADME
[9] = system: RH-YFP; experiment: Assessment of compound degradation and microbicidal effect on Toxoplasma; assay type: cell-based, Toxoplasma gondii
Description: HFF were cultured in a 96-well plate and infected with RH-YFP as described above on Day 0, 20 μL of compound was added to 9 wells for each compound and concentration (3 conditions, 3 wells per condition). In condition I, media was removed and replaced with fresh media on Day 3. In condition II, media was removed and replaced with fresh media and more compound on Day 3. In condition III, media was not replaced on Day 3, nor was the compound refreshed. On Day 6, media was removed and replaced with clean media in all wells. On Day 3, 6, and 9 plate was read in the fluorimeter and analyzed graphically in Prism (GraphPad Software).

[10] = system: human foreskin fibroblasts (HFF); experiment: Cytotoxicity assay with WST-1 in HFF; assay type: cell-based; conditions: 10 μM and 50 μM, WST-1
Description: as §2
as §2, with “(Roche) as described in Fomovska, et. al. (18,19).” for “(Roche).”, “of 10 μM and 50 μM.” for “equal to those being tested in challenge assays.”, “DMSO from 10% to 0%” for “DMSO”, “fluorimeter” for “fluorometer”

[11] = system: MDR1; experiment: in vitro; assay type: in vitro ADME; conditions: dog, MDCK-MDR1, MDCK-MDR1 Efflux Ratio
[12] = in vitro; assay type: in vitro ADME; conditions: dog, MDCK-MDR1

## Cc1[nH]c2ccccc2c(=O)c1-c1ccc(Oc2ccc(OC(F)(F)F)cc2)cc1 [ELQ271, 2-methyl-3-(4-(4-(trifluoromethoxy)phenoxy)phenyl) quinolin-4(1H)-one, reference compound]
[1]
  Mouse liver microsomes T1/2: 7.4688 h
[2]
  growth inhibition of wild type yeast: effective
[3]; 10 μM
  reduction of EGS cysts in vitro: reduce the EGS cysts; also recorded: inhibited EGS in vitro
[4]; aqueous buffer, kinetic from dmso stock, 100 mM Phosphate Buffer (pH 7.4)
  solubility: 0.15 µM (≈ 0.0617 µg/mL)

## Cc1[nH]c2ccccc2c(=O)c1-c1ccc(Oc2ccc(OC(F)(F)F)cc2)cc1 [ELQ 271, reference compound]
[5]
  solubility: 3.4 µM (≈ 1.4 µg/mL)
[1]
  Mouse microsomal stability T1/2: >3.33 h
[1]; mouse, liver microsomes, read-out: Mouse microsomal stability T1/2
  half-life: > 3.33 h
[3]; Toxoplasma gondii, EGS strain, read-out: T. gondii Bradyzoite IC50
  IC50: 1000 nM
[6]
  CC50 at 72 h: 20000 nM
[4]
  solubility kinetic: 0.15 µM (≈ 0.0617 µg/mL)
[7]; C2B strain (multi-drug resistant, atovaquone resistant)
  IC50: 130 nM
[7]; D6 strain (drug sensitive)
  IC50: 30 nM
[7]; TM91C235 strain (multi-drug resistant)
  IC50: 90 nM
[7]; W2 strain (chloroquine resistant)
  IC50: 100 nM
[8]
  Human microsomal stability T1/2: 2.87 h and 2.865 h

## Cc1[nH]c2c(c(=O)c1-c1ccc(Oc3ccc(Cl)cc3)cc1)CCCC2 [JAG050, 3-(4-(4-chlorophenoxy)phenyl)-2-methyl-5,6,7,8-tetrahydroquinolin-4(1H)-one]
[9]; 6-day exposure in culture
  compound degradation over time: did not appear that the compound was being degraded over time
[9]; RH-YFP, media replaced
  microbicidal effect: Neither compound was found to be microbicidal
[1]
  Mouse liver microsomes T1/2: 1.142 h
[3]; 1 μM and 10 μM, EGS
  reduction in the number of true cysts and small organisms: statistically significant reduction
[3]; part a, 1 μM
  Pseudocysts: 23.25 ± 10.31
  Small organisms: 58 ± 24
  True Cysts: 0.25 ± 0.5
[3]; part a, 10 μM
  Pseudocysts: 20.5 ± 2.9
  Small organisms: 31 ± 16
  True Cysts: 1 ± 0.82
[3]; part b, 1 μM
  Pseudocysts: 2269
  Small organisms: 5086
  True Cysts: 29
[3]; part b, 10 μM
  Pseudocysts: 1921
  Small organisms: 3018
  True Cysts: 88
[10]
  toxicity to human foreskin fibroblasts: no toxicity
[4]; PBS, pH 7.4, aqueous buffer, kinetic from dmso stock
  solubility kinetic: 16 µM (≈ 5.85 µg/mL)
[8]
  Human liver microsomes T1/2: 1.651 h
[11]
  efflux ratio: < 1.5
[12]
  Papp A→B: > 10 ×10⁻⁶ cm/s
